Results on five compounds are retold here after patent US20160008419A1, “Methods and Compositions for the Prevention and Treatment of Parasitic Disease” (THE BOARD OF TRUSTEES OF THE LELAND STANFORD JUNIOR …, priority 2013, published 2016).

The term IC50 denotes the concentration that inhibits the measured activity by half.

In data set [1] the test system is parasites in human RBC culture. Description: Parasite growth (parasitemia) in human RBC culture with ALDH inhibitor. Format: cell-based. The protocol:
FIG. 8 depicts the effect of ALDH inhibitor, disulfiram, on parasitemia in RBC. Parasitemia were determined 24 and 72 hours after the addition of disulfiram at the indicated concentrations.
Disulfirm and diadzin are used as deterrents for treatment of alcoholism, and as such, are both safe and effective ALDH2 inhibitors. […] As a negative control, pyrazole, an alcohol dehydrogenase inhibitor, at a concentration as high as 500 μM has no effect on the growth of parasites.

For data set [2] the following is noted: 2.5 alcoholic drinks (0.5 g/kg body weight), cited from earlier work.
For data set [3] the following is noted: after drinking alcohol; cited from earlier work.
Data set [4] relates to P. falciparum. The settings on record: cited from earlier work.
For data set [5], the system named is P. falciparum. Description: Parasitemia in P. falciparum infected human red blood cells treated with acetaldehyde. The format is cell-based, Plasmodium falciparum. The settings on record: acetaldehyde μM range (low levels); Geimsa stain and flow cytometry; preliminary data. The protocol: Parasitemia counts were determined by Geimsa stain and FACS.
[…] Exp. Res., 22: 1161-1164). […] Further, μM concentrations of 4HNE are also very common under conditions of infection, inflammation or fever (e.g. during the chill-fever cycles of malaria).
Background: A flow cytometer gives signals particle by particle.

The conditions of data set [6]: expected.
The next data set relates to P. berghei. To be noted: wild type mice; expected.

“Also recorded” adds a separate entry of the source. Where two headings read alike, the source gives them in different places.

Description for P. berghei: In this model, infections with P. berghei ANKA and NK65 strains yield highly reproducible peripheral parasitemias and gametocytemias that are infectious to An. stephensi. […] The ALDH2*2 mouse is on a C57/BL6 background, a mouse strain that is the most susceptible among common mouse strains to hepatic infection with P. berghei (Scheller L. F., et al. Susceptibility of different strains of mice to hepatic infection with Plasmodium berghei. Infect Immun. 1994; 62(11):4844-7). […] On the day of infection, mice in each of the experimental groups are infected by bite of An. stephensi (5-10 mosquitoes/mouse).
During P. berghei infection, liver stages and accompanying pathology are evident by 39 hr post-infection (Scheller L. F., et al. Susceptibility of different strains of mice to hepatic infection with Plasmodium berghei. Infect Immun. 1994; 62(11):4844-7), peripheral parasitemia is evident by 4-5 days post-infection, and gametocytemia rises with peripheral parasitemia to become infectious to An. stephensi. Based on these parameters, mice that are not sacrificed within 39-48 hrs post-infection to assess liver stage parasites and pathology are examined daily for peripheral parasitemia beginning at 3 days post-infection.

Consider `c1cn[nH]c1` [pyrazole], for which the “effect on the growth of parasites” value in data set [1] (negative control, concentration as high as 500 μM) was “no effect”.

In the case of “tetraethylthioperoxydicarbonic diamide [disulfiram]”, the IC50 in data set [1] (human RBC culture, in the absence of alcohol, read-out: inhibition of parasite growth IC50) turned out to be 9.7 µM.

Regarding `CC=O` [acetaldehyde], the blood acetaldehyde level in data set [2] (human ALDH2*2 heterozygotic subjects) was 60 µM; in data set [2] (subjects with wild type enzyme), around 2 µM. The “acetaldehyde concentration in human saliva” value in data set [3] is at least 450 µM. In the data set with P. falciparum [4], the “toxicity to malaria parasites in vitro” value was “toxic”. Also, the “growth of P. falciparum / parasitemia in human RBCs” value in the data set on P. falciparum [5] was “inhibit growth; also recorded: reduces parasitemia”.

For the compound `CCO` [ethanol], the “difference in blood acetaldehyde level between wild type and ALDH2*2 mutant animals” value in data set [6] (1.5 to 4.0 g/kg acute ethanol administration) is recorded as “at least 5 fold”. In addition, the “duration of the difference in blood acetaldehyde level” value in data set [6] (after single dose of ethanol) lay in the range of 4 to 6 h. For the same compound, the “parasite infection, histopathology, or transmission due to ethanol treatment” value in the data set on P. berghei is reported as “no significant differences”.

Turning to `CCCCCC(O)C=CC=O` (stereo not drawn) [4HNE, 4-Hydroxy-2-nonenal], the “reduction of growth of P. falciparum relative to controls” value in the data set with P. falciparum [4] (50-100 μM) is listed as 50-100%. The “toxicity to malaria parasites in vitro” value in the data set on P. falciparum [4] was “toxic”.
